The values below are quoted from earlier work in patent publication US8101589B2, “Nitric oxide-releasing molecules” (Noxilizer, Inc., priority 2004, dated 2012).

For this data set the following is noted: literature (Traube, 1898).

Consider methylene bisdiazeniumdiolate, for which the “NO release in solution” value is recorded as “inability to release NO”.
